Columns and labels:
[1] = In vitro metabolic stability in cryopreserved human hepatocytes; type: in vitro ADME; details: 1 μM test compound
Experimental: Investigation of In Vitro Metabolic Stability in Cryopreserved Human Hepatocytes (Including Calculation of Hepatic In Vivo Blood Clearance (CL) and Maximal Oral Bioavailability (Fmax))
Cryopreserved Hepatocytes (e.g. purchased from Celsis InVitroTechnologies) were briefly thawed, washed with 45 mL pre-warmed in in vitro GRO HT medium and centrifuged for 5 min at 50×g. The cell pellet was resuspended in 5 ml of Krebs-Henseleit […] (KHB). Cell viability was determined by trypan blue exclusion.
For the metabolic stability assay liver cells were distributed in WME containing 5% FCS to glass vials at a density of 1.0×10^6 vital cells/ml. The test compound was added to a final concentration of 1 μM. During incubation, the hepatocyte suspensions were continuously shaken at 580 rpm and aliquots were taken at 2, 8, 16, 30, 45 and 90 min, to which equal volumes of cold methanol were immediately added. Samples were frozen at −20° C. over night, after subsequently centrifuged for 15 minutes at 3000 rpm and the supernatant was analyzed with an Agilent 1290 HPLC-system with LCMS/MS detection.
The half-life of a test compound was determined from the concentration-time plot. From the half-life the intrinsic clearances were calculated. […] The hepatic in vivo blood clearance (CL) and the maximal oral bioavailability (Fmax) was calculated.

PDE3A(677-1141) = biological target: T1, PDE3A(677-1141) (Homo sapiens, UniProt Q14432); assay: Differential scanning fluorimetry (DSF) binding to purified PDE3A catalytic domain; details: 5 μM PDE3A, 100 μM compound
T1 construct: purified PDE3A catalytic domain, PDE3A(677-1141)
T1 sequence (Q14432 677-1141): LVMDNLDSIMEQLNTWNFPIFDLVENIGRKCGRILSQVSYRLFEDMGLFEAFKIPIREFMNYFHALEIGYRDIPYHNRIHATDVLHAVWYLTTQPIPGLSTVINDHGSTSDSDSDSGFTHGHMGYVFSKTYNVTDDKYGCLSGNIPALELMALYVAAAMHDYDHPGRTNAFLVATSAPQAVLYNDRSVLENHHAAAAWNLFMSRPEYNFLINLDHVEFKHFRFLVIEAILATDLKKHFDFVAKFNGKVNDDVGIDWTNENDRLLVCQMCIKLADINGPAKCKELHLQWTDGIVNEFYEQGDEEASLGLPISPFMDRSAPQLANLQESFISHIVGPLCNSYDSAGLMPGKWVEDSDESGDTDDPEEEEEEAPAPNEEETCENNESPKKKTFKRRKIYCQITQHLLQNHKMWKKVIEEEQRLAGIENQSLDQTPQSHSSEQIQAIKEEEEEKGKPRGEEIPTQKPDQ
Experimental: Binding buffer: 20 mM Hepes pH 7.4, 100 μM TCEP, 1 mM MgCl2, 150 mM NaCl.

PDE3A = biological target: T2, PDE3A (Homo sapiens, UniProt Q14432); assay: Linker-affinity purification of molecular target of DNMDP and immunoblotting (competition); type: binding; details: HeLa cell lysate, 10 μM compound
T2 construct: endogenous in cells; host or cells: HeLa
T2 sequence (Q14432 whole entry): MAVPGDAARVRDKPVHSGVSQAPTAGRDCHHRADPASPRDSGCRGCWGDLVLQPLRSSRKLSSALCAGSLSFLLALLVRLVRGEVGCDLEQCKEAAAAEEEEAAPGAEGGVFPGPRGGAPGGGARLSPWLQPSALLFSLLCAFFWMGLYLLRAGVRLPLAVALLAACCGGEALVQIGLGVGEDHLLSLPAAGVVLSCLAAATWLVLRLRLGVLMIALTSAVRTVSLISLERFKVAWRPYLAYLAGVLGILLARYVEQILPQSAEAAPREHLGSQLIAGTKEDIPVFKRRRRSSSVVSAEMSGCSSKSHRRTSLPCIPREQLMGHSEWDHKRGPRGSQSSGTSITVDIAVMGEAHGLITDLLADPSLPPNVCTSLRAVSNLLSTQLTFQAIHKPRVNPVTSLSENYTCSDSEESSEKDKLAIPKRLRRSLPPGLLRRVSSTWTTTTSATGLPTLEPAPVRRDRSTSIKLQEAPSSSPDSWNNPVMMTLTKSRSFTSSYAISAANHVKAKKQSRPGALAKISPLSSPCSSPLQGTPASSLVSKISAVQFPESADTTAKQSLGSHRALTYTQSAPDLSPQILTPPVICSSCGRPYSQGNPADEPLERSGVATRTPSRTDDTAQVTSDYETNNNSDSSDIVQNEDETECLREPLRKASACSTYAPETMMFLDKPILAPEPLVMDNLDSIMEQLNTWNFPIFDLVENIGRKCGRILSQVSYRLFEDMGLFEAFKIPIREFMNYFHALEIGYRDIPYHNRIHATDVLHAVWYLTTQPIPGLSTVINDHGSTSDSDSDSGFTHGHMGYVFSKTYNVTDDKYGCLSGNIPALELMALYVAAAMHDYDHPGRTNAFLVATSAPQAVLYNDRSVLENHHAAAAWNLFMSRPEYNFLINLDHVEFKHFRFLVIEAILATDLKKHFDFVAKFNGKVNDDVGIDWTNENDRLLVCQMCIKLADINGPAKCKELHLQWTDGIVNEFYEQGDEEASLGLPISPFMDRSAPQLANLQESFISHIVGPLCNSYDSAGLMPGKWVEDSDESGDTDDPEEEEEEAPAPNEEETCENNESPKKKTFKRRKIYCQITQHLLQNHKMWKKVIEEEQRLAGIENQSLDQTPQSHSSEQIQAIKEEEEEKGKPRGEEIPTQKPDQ
Experimental: To identify the molecular target of DNMDP, an affinity purification was performed using an (R)-des-nitro-DNMDP solid-phase tethered linker analogue (FIG. 10A) incubated with HeLa cell lysate. […] It was competed for the molecular target by adding either an excess of trequinsin or separate enantiomers of DNMDP, where only the (R)-enantiomer was cytotoxic. […] Binding of PDE3A to the linker analogue was blocked by both trequinsin and (R)-DNMDP, but not by the non-cytotoxic enantiomer (S)-DNMDP (FIG. 9C). Thus both trequinsin and (R)-DNMDP prevented the binding of PDE3A to the tethered DNMDP analogue, and it was concluded that both molecules bind PDE3A directly.
HeLa cells were washed with ice-cold PBS before lysed with NP-40 lysis buffer (150 mM NaCl, 10% glycerol, 50 mM Tris-Cl pH 8.0, 50 mM MgCl2, 1% NP-40) supplemented with EDTA-free protease inhibitors (Roche) and phosphatase inhibitor mixtures I and II (Calbiochem). Cell lysates were incubated on ice for at least 2 minutes and subsequently centrifuged for 10 minutes at 4° C. at 15,700×g after which the supernatant was quantified using BCA protein assay kit (Pierce). […] total HeLa cell lysate was incubated with 3 μl Affi-Gel 102 resin (BioRad) coupled to affinity linker DNMDP-2L in a total volume of 400 μl for four hours. Prior to incubation, indicated compounds were added to affinity purifications at a final concentration of 10 μM. Samples were washed three times with lysis buffer containing corresponding compound concentrations of 10 μM. Proteins bound to Affi-Gel 102 resin were reduced, denatured, and separated using Tris-Glycine gels (Novex) and transferred to nitrocellulose membranes using the iBlot transfer system (Novex). Membranes were incubated overnight at 4° C. with primary antibodies against PDE3A (1:1000, Bethyl). Incubation with secondary antibodies (1:20,000, LI-COR Biosciences) for two hours at room temperature and subsequent detection (Odyssey Imaging System, LI-COR Biosciences) were performed according to manufacturer's recommendations.

HeLa cells [2] = assay: Follow-up dose-dependent rescue of DNMDP cytotoxicity (competition with DNMDP); type: cell-based, human; details: co-treatment with DNMDP, 48 h; for rescue of DNMDP cytotoxicity / competition (in words): up to 10 μM
HeLa cells [3] = assay: Compound sensitivity testing in cell lines (cell viability, 48 h); type: cell-based, human
Experimental: 1500 NCI-H1734 or 1000 A549 cells were plated in a 384-well plate in 40 μl of RPMI supplemented with 10% Fetal Bovine Serum and 1% Pen/Strep. 24 hours after plating, a compound-library of 1924 small molecules was added at a concentration of 10 μM. Staurosporine was used a positive control for cytotoxicity at a concentration of 10 μM, and DMSO was used a negative control at a concentration of 1%. All compounds were incubated for 48 hours with indicated small molecules. After 48 hours, 384-well plates were removed from the incubator and allowed to cool to room temperature for 20 minutes. Cell viability was assessed by adding 40 μl of a 25% CELLTITERGLO® (Promega) in PBS with a THERMO COMBI™ or multichannel-pipette and incubated for 10 minutes. The luminescence signal was read using a Perkin-Elmer EnVision. Viability percentage was calculated by normalizing to DMSO controls.
1000 HeLa (DMEM), 1000 A549 (RPMI), 500 MCF-7 (DMEM), 4000 PC3 (F12-K), 1000 NCI-H2122 (RPMI) or 1500 NCI-H1563 (RPMI) cells were plated in a 384-well plate in 40 μl of corresponding growth media supplemented with 10% Fetal Bovine Serum. 24 hours after plating, indicated compounds were added at indicated concentrations and incubated for 48 hours. Cell viability was assessed as described in Compound library screening in NCI-H1734 and A549 cell lines.

HeLa cells [4] = assay: Bioactives screen to rescue DNMDP induced cytotoxicity; type: cell-based, human; details: 20 μM bioactive + 30 nM DNMDP, 48 h
Text: Most importantly, PDE4 competitive inhibitors and PDE4 allosteric modulators with similar IC50s for cAMP hydrolysis in vitro had different cellular activities and safety profiles in animal studies (Burgin et al., Nat Biotechnol 28, 63-70, 2010). To evaluate whether PDE inhibitors or other small molecules compete with DNMDP, the PHARMAKON 1600 collection of 1600 bioactive compounds (PHARMAKON 1600 is a unique collection of 1600 known drugs from US and International Pharmacopeia) was screened to identify compounds that were able to rescue cell death induced by DNMDP. HeLa cells were co-treated with 30 nM DNMDP (the EC70 concentration) and 20 μM of each bioactive compound. Cell viability after 48-hour treatment was assessed by ATP […] as described earlier.
Bioactives Screen to Rescue DNMDP Induced Cytotoxicity 1000 HeLa cells were plated in a 384-well plate in 40 μl of DMEM supplemented with 10% Fetal Bovine Serum and 1% Pen/Strep. 24 hours after plating, a compound-library of 1600 bioactive molecules (Pharmacon) was added at a concentration of 20 μM. In parallel to bioactive compound incubation, DNMDP was added to a final concentration of 30 nM and incubated for 48 hours. Cell viability was assessed as described in Compound library screening in NCI-H1734 and A549 cell lines. Linker-Affinity Purification of Molecular Target of DNMDP and Immunoblotting

SMILES | Tm (PDE3A(677-1141)) [°C] | blocking of PDE3A binding to the tethered linker analogue (PDE3A) | rescue of DNMDP cytotoxicity / competition (in words) (HeLa cells [2]) | also measured
C[C@@H]1CC(=O)NN=C1c1ccc(N2CCOCC2)c(F)c1 (single isomer, unassigned) [Compound 3] | 59.0 ± 0.0 |  |  | mean metabolic stability (Fmax) [1]: 49%; ΔTm at 100 µM (PDE3A(677-1141)): 6.6 °C
CCN(CC)c1ccc(C2=NNC(=O)C[C@H]2C)cc1[N+](=O)[O-] [(R)-DNMDP, (R)-6-(4-(diethylamino)-3-nitrophenyl)-5-methyl-4,5-dihydropyridazin-3(2H)-one] |  | blocked |  | 
CCN(CC)c1ccc(C2=NNC(=O)C[C@@H]2C)cc1[N+](=O)[O-] [(S)-DNMDP] |  | not |  | 
O=C1CN2Cc3c(ccc(Cl)c3Cl)N=C2N1 [Anagrelide, 6,7-dichloro-1,5-dihydroimidazo (2,1-b)quinazolin-2(3H)-one, reference compound] | 56.6 ± 0.0 |  |  | 
COc1cc2c(cc1OC)-c1c/c(=N\c3c(C)cc(C)cc3C)n(C)c(=O)n1CC2 [Trequinsin, 9,10-dimethoxy-3-methyl-2-(2,4,6-trimethylphenyl)imino-6,7-dihydropyrimido[6,1-a]isoquinolin-4-one, reference compound] | 66.2 ± 0.0 | blocked |  | EC50 (HeLa cells [2]; Homo sapiens, read-out: RC50 (the concentration at which it achieved 50% rescue)): < 1 nM; effect on HeLa cell viability (in words) (HeLa cells [3]): did not affect HeLa cell viability in any detectable way
CN(C(=O)CCCOc1ccc2[nH]c(=O)ccc2c1)C1CCCCC1 [cilostamide, N-cyclohexyl-N-methyl-4-[(2-oxo-1H-quinolin-6-yl)oxy]butanamide] |  |  | able to rescue DNMDP cytotoxicity in a dose-dependent manner | 
O=C1CCc2cc(OCCCCc3nnnn3C3CCCCC3)ccc2N1 [cilostazol, 6-[4-(1-cyclohexyl-1H-tetrazol-5-yl)butoxy]-3,4-dihydro-2(1H)-quinolinone] |  |  |  | rescue of cell death induced by DNMDP (rank in screen) (HeLa cells [4]): three most potent compounds
CC(C)C(=O)c1c(C(C)C)nn2ccccc12 [idubulast] |  |  | not effective competitors | 
Cc1[nH]c(=O)c(C#N)cc1-c1ccncc1 [milrinone, 2-methyl-6-oxo-1,6-dihydro-3,4′-bipyridine-5-carbonitrile] |  |  | able to rescue DNMDP cytotoxicity in a dose-dependent manner | rescue of cell death induced by DNMDP (rank in screen) (HeLa cells [4]): three most potent compounds
CCCc1nn(C)c2c(=O)[nH]c(-c3cc(S(=O)(=O)N4CCN(C)CC4)ccc3OCC)nc12 [sildenafil, 1-[4-ethoxy-3-(6,7-dihydro-1-methyl-7-oxo-3-propyl-1H-pyrazolo[4,3-d]pyrimidin-5-yl)phenylsulfonyl]-4-methylpiperazine] |  |  | not effective competitors | 
